Test results taken from patent publication EP4559466A1, “MICROBIOTA SIGNATURE TO DETECT FOOD ADDICTION AND TREATMENT THEREOF” (Universitat Pompeu Fabra (UPF), priority 2023, dated 2025).

Assays:
C57BI/6J mice = test: Mouse food addiction operant protocol with prebiotics in drinking water; type: in vivo; conditions: for mice that achieved the addiction criteria (2-3 criteria, considered addicted): 1% in drinking water during whole protocol, 120 sessions, late period (95-112 sessions), n=12 per group, 41.67% of control mice addicted, χ^2=8.57 control vs lactulose, χ^2=12 control vs rhamnose, P<0.01; for persistence of response: compared to control group
Protocol: Mice were trained to obtain chocolate-flavored pellets (n=59) in operant boxes during 98 sessions in 1 h-daily self-administration sessions. The operant boxes and daily self-administration protocol of food addiction were accurately described in previous publications (Martín-García E, Domingo-Rodriguez L, Maldonado R. An Operant Conditioning Model Combined with a Chemogenetic Approach to Study the Neurobiology of Food Addiction in Mice. Bio-Protocol 2020;10:1-23. doi:10.21769/bioprotoc.3777; Domingo-Rodriguez L, Ruiz de Azua I, Dominguez E, et al. A specific prelimbic-nucleus accumbens pathway controls resilience versus vulnerability to food addiction. Nat Commun 2020;11:1-16. doi:10.1038/s41467-020-14458-y). Mice were under fixed-ratio 1 (FR1) during six sessions, followed by 92 sessions under FR5. The food addiction-like behavior was evaluated during this operant conditioning maintained by food at a late period (82-92 sessions) to classify mice into the addictive phenotype considering three food addiction-like criteria (1) persistence of response, (2) motivation, and (3) compulsivity. These criteria summarized the main features of the human food addiction diagnosis through the Yale Food Addiction Scale (YFAS 2.0) based on the 5th edition of the diagnostic and statistical manual of mental disorders (DSM-5) for substance use disorders. The three behavioral tests performed to evaluate these three addiction-like criteria (responding during the pellet-free period for the persistence of response, progressive ratio schedule for motivation, and shock-associated unconditioned stimulus for compulsivity) were performed as previously described (Mancino S, Burokas A, Gutiérrez-Cuesta J, et al. Epigenetic and Proteomic Expression Changes Promoted by Eating Addictive-Like Behavior. Neuropsychopharmacology 2015;40:2788-800. doi:10.1038/npp.2015.129). At the end of the late period, animals were categorized into two subpopulations, food-addicted or nonaddicted, depending on the number of addiction-like criteria achieved. Mice with two or three addiction-like criteria were considered addicted, and mice with 0 or 1 addiction-like criteria were considered nonaddicted.
Additionally, four additional phenotypic traits were also evaluated as factors of vulnerability, impulsivity, cognitive inflexibility, appetitive and aversive cue-reactivity. • Impulsivity, the inability to stop a response once it is initiated, was measured as the number of non-reinforced active responses during the time-out period (10 s) after each pellet delivery. This impulsivity-like behavior was delimited to the three consecutive days before the progressive ratio. • Cognitive inflexibility is the incapacity to shift responding to stimuli that have previously predicted the availability of reward. […] In the next 30 min, the cue light associated with pellet delivery during a typical operant training session was illuminated with no contingent pellet reinforcement. To signal the change in the schedule, the cue light was presented twice non-contingently and for 4 s. • Aversive cue-reactivity: To study the conditioning to an aversive stimulus (grid floor), non-reinforced active responses during the following session after the shock test were measured. Mice were placed in the operant box for one hour with the same grid floor used during the shock test. However, during this session, pressing the active lever had no consequences: no shock, no chocolate-flavored pellets, and no cue light.
Mice (n=36) were trained in the same experimental conditions previously described to obtain chocolate flavored pellets during 120 sessions of a 1h-daily self-administration protocol. The duration of training was enhanced in this experiment in order to allow a longer exposure to the prebiotics that could facilitate their effects to modify the behavioral responses. Mice were trained for six days at FR1, followed by 114 FR5 sessions. […]

Blautia [1] = conditions: Reichardt et al. 2018 (rhamnose); Cui et al. 2021 (lactulose); cited from earlier work
Blautia [2] = test: Quantitative PCR of Blautia in mouse feces after prebiotic treatment; type: in vivo; conditions: 1% in drinking water, feces collected at end of protocol, qPCR, vs control
Protocol: At the end of the protocol, feces were collected to quantify Blautia abundance in the gut by quantitative PCR. DNA was extracted from 0.18-0.2g of feces using QIAamp® Fast DNA Stool Mini kit (Qiagen, Germany) and was stored at -20°C.
To quantify the Blautia in the feces, primers g-Blau-R (5'-[…]-3') SEQ ID No 3 and g-Blau-F (5'- […]- 3'), targeting SEQ ID No 4 16S rRNA gene, were used, as previously described. Each reaction mixture (10 µl) comprises LightCycler 480 SYBR Green I Master (Roche Life Science, Germany) and 1ng/µl of genomic DNA. The amplification program consisted of one cycle at 95°C for 10 min, followed by 40 cycles at 94°C for 20 s, 55°C for 20 s, and 60°C for 40 s. The fluorescent products were detected in the last step of each cycle. qPCR amplification and detection were performed in 384-well optical plates with an QuantStudio 12K Flex Real-Time PCR System (Applied Biosystems). A melting curve analysis was performed at the end of the experiment to determine the specificity of an assay. The melting program consisted of the first step of 95°C for 15 s, the second step of 60°C for 1 min, and the last dissociation step of 95°C for 15 s. […]
A qPCR was performed to confirm the effectiveness of targeted prebiotics in increasing Blautia genus abundance in the gut. Based on the generated standard curve, the amount of Blautia per gram of feces was determined. […]

[3] = 1% in drinking water, late period

Row | Structure (SMILES) | mice that achieved the addiction criteria (2-3 criteria, considered addicted) (C57BI/6J mice) | persistence of response (C57BI/6J mice; [3]) | amount of Blautia in mice feaces (Blautia [1]) | Blautia abundance in the gut (amount of Blautia per gram of feces) (Blautia [2]) | cognitive inflexibility (C57BI/6J mice; 1% in drinking water, late period, compared to control (U=35.50, P<0.05) and lactulose (U=17.00, P<0.001)) | compulsivity in seeking for palatable food (C57BI/6J mice; 1% in drinking water, late period, compared to control mice, Mann-Whitney's U=31.50, P<0.01) | motivation for chocolate-flavored pellets (C57BI/6J mice; 1% in drinking water, late period, rhamnose compared to lactulose, Mann-Whitney's U=31.50, P<0.05)
1 | OC[C@H]1O[C@@H](O[C@@H]2[C@@H](CO)OC(O)(CO)[C@H]2O)[C@H](O)[C@@H](O)[C@H]1O (stereo partly drawn) [lactulose, 4-O-β-D-galactopyranosyl-D-fructofuranose, reference compound] | none | similar | increases | non-significant trend to enhance |  |  | 
2 | C[C@@H]1OC(O)[C@H](O)[C@H](O)[C@H]1O (stereo partly drawn) [rhamnose, (3R,4R,5R,6S)-6-methyloxane-2,3,4,5-tetrol] | none | similar | increases | significantly increased | lower | decreased | reduced
